Assay results published in patent US12497365B2, “4-pyridinyl formamide compound or derivative thereof, preparation method therefor, herbicidal composition and use thereof” (Qingdao Kingagroot Chemical Compound Co., Ltd., priority 2019, dated 2025).

Columns and labels:
Assay in all cases: Weeding effect in post-emergence stage
Format in all cases: in vivo
Conditions in all cases: active ingredient 2000 g/ha, 3 weeks after application, fresh weight control rate
Abutilon theophrasti = system: Abutilon theophrasti
Description: (§1) The activity level criteria for plant damage (i.e., growth control rate) are as follows:
(§2) The above growth control rates are fresh weight control rates.
(§3) Experiment on weeding effect in post-emergence stage: monocotyledonous and dicotyledonous weed seeds and major crop seeds (wheat, corn, rice, soybean, cotton, oilseed rape, millet, sorghum) were placed in plastic pots filled with soil, then covered with 0.5-2 cm of soil, allowed to grow in a good greenhouse environment. After 2 weeks of sowing, the test plants were treated in the 2-3 leaf stage. The tested compounds of the present invention were respectively dissolved in acetone at the dosage of 2000, 1000, 500, 250, 125 g/ha, then added with Tween 80 and 1.5 liter/ha of emulsifiable concentrate of methyl oleate as synergist, diluted with a certain amount of water to obtain a solution with a certain concentration, and sprayed with a spray tower onto the plants. After the application, the plants were cultured for 3 weeks in the greenhouse, and then the experimental results were listed in Table 1.

Chenopodium album = system: Chenopodium album
Description: as §1, §2, §3

[1] = system: Amaranthus retroflexus L.
Description: as §1, §2, §3

Descurainia sophia = system: Descurainia sophia
Description: as §1, §2, §3

Compound	Weeding effect, activity level (growth control rate), Abutilon theophrasti (Abutilon theophrasti)	Weeding effect, activity level (growth control rate), Chenopodium album (Chenopodium album)	Weeding effect, activity level (growth control rate), Amaranthus retroflexus L. [1]	Weeding effect, activity level (growth control rate), Descurainia sophia (Descurainia sophia)
Cc1nccc(C(=O)Nc2nnnn2C)c1Cl [Compound 1-1]	5 (Level 5: growth control rate is above 85%)	5 (Level 5: growth control rate is above 85%)	5 (Level 5: growth control rate is above 85%)	5 (Level 5: growth control rate is above 85%)
Cn1nnnc1NC(=O)c1ccnc(C(C)(C)C)c1Cl [Compound 1-2]	5 (Level 5: growth control rate is above 85%)	5 (Level 5: growth control rate is above 85%)	5 (Level 5: growth control rate is above 85%)	5 (Level 5: growth control rate is above 85%)
Cn1nnnc1NC(=O)c1ccnc(C2CC2)c1Cl [Compound 1-3]	5 (Level 5: growth control rate is above 85%)	5 (Level 5: growth control rate is above 85%)	5 (Level 5: growth control rate is above 85%)	5 (Level 5: growth control rate is above 85%)
Cn1nnnc1NC(=O)c1ccnc(C2CCCCC2)c1Cl [Compound 1-4]	5 (Level 5: growth control rate is above 85%)	5 (Level 5: growth control rate is above 85%)	5 (Level 5: growth control rate is above 85%)	5 (Level 5: growth control rate is above 85%)
Cn1nnnc1NC(=O)c1ccnc(C2=CCCCC2)c1Cl [Compound 1-5]	5 (Level 5: growth control rate is above 85%)	5 (Level 5: growth control rate is above 85%)	5 (Level 5: growth control rate is above 85%)	5 (Level 5: growth control rate is above 85%)
Cn1nnnc1NC(=O)c1ccnc(C2=CCN(C(=O)OC(C)(C)C)CC2)c1Cl [Compound 1-6]	5 (Level 5: growth control rate is above 85%)	5 (Level 5: growth control rate is above 85%)	5 (Level 5: growth control rate is above 85%)	5 (Level 5: growth control rate is above 85%)
Cn1nnnc1NC(=O)c1ccnc(C2=CCOCC2)c1Cl [Compound 1-7]	5 (Level 5: growth control rate is above 85%)	5 (Level 5: growth control rate is above 85%)	5 (Level 5: growth control rate is above 85%)	5 (Level 5: growth control rate is above 85%)
Cn1nnnc1NC(=O)c1ccnc(-c2ccccc2)c1Cl [Compound 1-8]	5 (Level 5: growth control rate is above 85%)	5 (Level 5: growth control rate is above 85%)	5 (Level 5: growth control rate is above 85%)	5 (Level 5: growth control rate is above 85%)
Cc1ccccc1-c1nccc(C(=O)Nc2nnnn2C)c1Cl [Compound 1-9]	5 (Level 5: growth control rate is above 85%)	5 (Level 5: growth control rate is above 85%)	5 (Level 5: growth control rate is above 85%)	5 (Level 5: growth control rate is above 85%)
Cc1cccc(-c2nccc(C(=O)Nc3nnnn3C)c2Cl)c1 [Compound 1-10]	5 (Level 5: growth control rate is above 85%)	5 (Level 5: growth control rate is above 85%)	5 (Level 5: growth control rate is above 85%)	5 (Level 5: growth control rate is above 85%)
Cc1ccc(-c2nccc(C(=O)Nc3nnnn3C)c2Cl)cc1 [Compound 1-11]	5 (Level 5: growth control rate is above 85%)	5 (Level 5: growth control rate is above 85%)	5 (Level 5: growth control rate is above 85%)	5 (Level 5: growth control rate is above 85%)
CCc1ccccc1-c1nccc(C(=O)Nc2nnnn2C)c1Cl [Compound 1-12]	5 (Level 5: growth control rate is above 85%)	5 (Level 5: growth control rate is above 85%)	5 (Level 5: growth control rate is above 85%)	5 (Level 5: growth control rate is above 85%)
CCCCCc1ccc(-c2nccc(C(=O)Nc3nnnn3C)c2Cl)cc1 [Compound 1-13]	5 (Level 5: growth control rate is above 85%)	5 (Level 5: growth control rate is above 85%)	5 (Level 5: growth control rate is above 85%)	5 (Level 5: growth control rate is above 85%)
CCCC1CCC(c2ccc(-c3nccc(C(=O)Nc4nnnn4C)c3Cl)cc2)CC1 (stereo not drawn) [Compound 1-14]	5 (Level 5: growth control rate is above 85%)	5 (Level 5: growth control rate is above 85%)	5 (Level 5: growth control rate is above 85%)	5 (Level 5: growth control rate is above 85%)
Cn1nnnc1NC(=O)c1ccnc(-c2cccc(F)c2)c1Cl [Compound 1-16]	5 (Level 5: growth control rate is above 85%)	5 (Level 5: growth control rate is above 85%)	5 (Level 5: growth control rate is above 85%)	5 (Level 5: growth control rate is above 85%)
Cn1nnnc1NC(=O)c1ccnc(-c2ccccc2Cl)c1Cl [Compound 1-18]	5 (Level 5: growth control rate is above 85%)	5 (Level 5: growth control rate is above 85%)	5 (Level 5: growth control rate is above 85%)	5 (Level 5: growth control rate is above 85%)
Cn1nnnc1NC(=O)c1ccnc(-c2cccc(Cl)c2)c1Cl [Compound 1-19]	5 (Level 5: growth control rate is above 85%)	5 (Level 5: growth control rate is above 85%)	5 (Level 5: growth control rate is above 85%)	5 (Level 5: growth control rate is above 85%)
Cn1nnnc1NC(=O)c1ccnc(-c2ccc(Cl)cc2)c1Cl [Compound 1-20]	5 (Level 5: growth control rate is above 85%)	5 (Level 5: growth control rate is above 85%)	5 (Level 5: growth control rate is above 85%)	5 (Level 5: growth control rate is above 85%)
Cn1nnnc1NC(=O)c1ccnc(-c2cccc(Br)c2)c1Cl [Compound 1-21]	5 (Level 5: growth control rate is above 85%)	5 (Level 5: growth control rate is above 85%)	5 (Level 5: growth control rate is above 85%)	5 (Level 5: growth control rate is above 85%)
Cn1nnnc1NC(=O)c1ccnc(-c2ccc(Br)cc2)c1Cl [Compound 1-22]	5 (Level 5: growth control rate is above 85%)	5 (Level 5: growth control rate is above 85%)	5 (Level 5: growth control rate is above 85%)	5 (Level 5: growth control rate is above 85%)
Cn1nnnc1NC(=O)c1ccnc(-c2ccccc2CBr)c1Cl [Compound 1-23]	5 (Level 5: growth control rate is above 85%)	5 (Level 5: growth control rate is above 85%)	5 (Level 5: growth control rate is above 85%)	5 (Level 5: growth control rate is above 85%)
